Biological target: T1, fascin1 (Homo sapiens, UniProt Q16658)
T1 construct: gene FSCN1; commercial purified fascin1 (Hypermol)
Assay: F-actin bundling, low-speed cosedimentation
Type: biochemical
Details: 1 µM fascin1; 10 µM F-actin

`CN(C)CCCN1c2ccccc2CCc2ccccc21` [imipramine] was tested, and the “F-actin bundling, low-speed cosedimentation” value was “upon imipramine addition, the F-actin pellet fraction significantly diminished in favor of the supernatant”.

From article PMC7062870 (Experimental & Molecular Medicine, 2020)
